Reference: patent US20220257583A1, “Compositions and Methods for the Treatment of Intracranial Diseases” (Duke University, priority 2019, published 2022)

Key:
S1P1 on T cells = assay: S1P1 expression on T cells exposed to compound; type: cell-based
[1] = molecular target: T1, β-arrestin 2 recruitment to activated β2V2R (Homo sapiens, UniProt P32121); assay: DiscoveRx β-arrestin 2 recruitment assay (β2V2R, isoproterenol stimulation); type: cell-based; conditions: 25 minutes pretreatment
T1 construct: host or cells: U2OS
T1 sequence (P32121 whole entry): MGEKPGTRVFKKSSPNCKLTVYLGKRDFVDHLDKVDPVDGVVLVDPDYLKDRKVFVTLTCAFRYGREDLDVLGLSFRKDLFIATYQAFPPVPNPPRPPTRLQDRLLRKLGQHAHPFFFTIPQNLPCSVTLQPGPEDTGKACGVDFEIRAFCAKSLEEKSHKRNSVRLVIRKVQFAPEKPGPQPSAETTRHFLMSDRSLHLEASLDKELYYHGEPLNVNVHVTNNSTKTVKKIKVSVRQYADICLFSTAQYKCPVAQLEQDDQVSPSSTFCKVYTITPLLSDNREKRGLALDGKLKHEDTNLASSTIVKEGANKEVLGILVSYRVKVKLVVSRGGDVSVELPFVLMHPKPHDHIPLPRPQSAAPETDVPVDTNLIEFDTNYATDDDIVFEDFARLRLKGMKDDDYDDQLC
Method: FIG. 13: The first 40 initial hits from the screening of a structurally diverse, drug-like compound (DDLC) library containing more than 3,500 unique molecules with binding activity against purified β-arrestin 2 were evaluated for β-arrestin 2 recruitment by DiscoveRx assay. DiscoveRx cells expressing chimeric β2-adrenergic receptor (β2AR) with C-terminal tail from vasopressin receptor 2 (β2V2R) that is known to bind β-arrestin 2 very tightly were employed in this assay. The DiscoveRx cells were pretreated with candidate compounds at 50 μM or DMSO (control) for 25 minutes followed by stimulation with isoproterenol (10 nM). Compound B29 inhibits more than 75% of β-arrestin 2 activity (red-dashed rectangle) induced by isoproterenol which is a receptor agonist (red bar graph).
FIG. 14: β-arrestin 2 recruitment to activated β2V2R. Testing B29 further, the DiscoveRx cells were pretreated with compound B29 at 1, 10, 50 μM or DMSO (control) for 25 minutes followed by stimulation with isoproterenol at various concentrations.
FIG. 20 is a graphic representation showing the effect of putative βarr2 binding compounds (21 hits) on βarr2 recruitment to agonist activated GPCR. DiscoveRx-U2OS cells exogenously expressing βarr2 and β2V2R were treated with each putative βarrestin binding compound at 50 μM for 30 min and then stimulated with agonist isoproterenol (10 nM) to induce recruitment of βarr. […]

intracranial CT2A glioma = assay: Survival of mice bearing intracranial CT2A glioma; type: in vivo; conditions: IC CT2A mice, monotherapy
Method: FIGS. 6A-6E: Hindering S1P1 internalization abrogates T-cell sequestration in bone marrow. FIG. 6A: Relative sequestration of adoptively transferred CFSE-labeled T-cells within the bone marrow of CT2A IC recipient mice at 2 h (left) or 24 h (right) after transfer. As indicated, transferred cells were splenocytes either from control C57BL/6 donors (control) or from S1P1 stabilized knock-in (S1P1 KI) donors (n=5 recipient mice per group). […] FIG. 6B: T-cell counts in the bone marrow of n=10 intracranial CT2A-bearing wild-type C57BL/6 or n=11 S1P1 KI mice. Counts were assessed at 18 d following tumor implantation and are shown relative to baseline counts inn=6 tumor-naïve control wild-type or n=6 tumor-naïve S1P1 KI mice. Cumulative data from three experiments are depicted in FIG. 6B and FIG. 6C, Intracranial CT2A tumors were harvested from n=6 wild-type C57BL/6 (WT) or n=6 S1P1 KI mice at 18 d following tumor implantation. TILs were assessed by flow cytometry and the number of total T-cells per gram of tumor quantified. FIG. 6D: The frequency of activated effector) (CD44^hiCD62L^lo) T-cells in intracranial CT2A tumors from the same n=6 wild-type C57BL/6 (WT) or n=6 S1P1 KI mice in FIG. 6C was also quantified. […] P values in and were determined by two-tailed, unpaired Student's t-test. Survival in FIG. 6E was assessed by two-tailed, generalized Wilcoxon test. […]

[2] = test system: T-cells in IC CT2A-bearing mice; assay: Bone marrow and blood T-cell counts in IC CT2A-bearing mice; type: in vivo; conditions: intraperitoneally every 3 days (Days 3-18), counts 18 days after implantation
Text: FIGS. 6F-6J: FIG. 6F: Representative flow cytometry plot depicting the frequency of S1P1 on the surface of T-cells in the bone marrow of C57BL/6 mice and S1P1 KI bearing IC CT2A tumor. FIG. 6G: S1P1 KI mice were implanted with IC CT2A tumors and treated with anti (α)-PD-1, 4-1BB agonist, or the combination of both (n=8 per group). FIG. 6H and FIG. 6I: Bone marrow (FIG. 6H) and blood (FIG. 6I) T-cell counts in n=8 control mice and n=8 IC CT2A-bearing mice administered control treatment or G-CSF intraperitoneally every 3 days following tumor implantation (Days 3-18). Counts were assessed 18 days following tumor implantation. FIG. 6J: IC CT2A IC mice were administered G-CSF, 4-1BB agonist, or the combination regimen of both drugs (n=8 per group). […] Data in FIG. 6H and FIG. 6I are shown as mean±s.e.m. P values and were determined by two-tailed, unpaired Student's t-test. Survivals in FIG. 6G and FIG. 6J were assessed by two-tailed generalized Wilcoxon test. P values for overall comparison are depicted. […]
Spleen, thymus, cervical lymph nodes, and long bones of the legs (femur and tibia) were collected at defined and/or humane endpoints, in accordance with protocol. […] Briefly, tissues were processed in RPMI, minced into single cell suspensions, cell-strained, counted, stained with antibodies, and analyzed via flow cytometry. […]

CN(C)c1n/c(=N/Cc2ccco2)ss1 [Compound C30, (Z)-3-((furan-2-ylmethyl)imino)-N,N-dimethyl-3H-1,2,4-dithiazol-5-amine]
S1P1 expression level on T cells (S1P1 on T cells; higher concentrations of compound): higher levels of S1P1 expression | ability to inhibit BARR (S1P1 on T cells; initially screened compound, FIG. 12): inhibit BARR

COc1cc(Cc2nccc3cc(OC)c(OC)cc23)c(C(C)=O)cc1OC [Compound B29, 1-(2-((6,7-dimethoxyisoquinolin-1-yl)methyl)-4,5-dimethoxyphenyl)ethan-1-one]
inhibition at 50 µM ([1]; compound 50 μM, isoproterenol 10 nM, read-out: inhibition of β-arrestin 2 activity induced by isoproterenol): > 75% | effect on isoproterenol titration curves of β-arrestin 2 recruitment ([1]; compound at 1, 10, 50 μM, isoproterenol at various concentrations): shifts the potency of agonist rightward and decreases maximal response in a dose dependent fashion

B1: G-CSF: granulocyte colony-stimulating factor, administered intraperitoneally every 3 days (protein, UniProt P09919 31-207, looked up)
Granulocyte …: TPLGPASSLPQSFLLKCLEQVRKIQGDGAALQEKLVSECATYKLCHPEELVLLGHSLGIPWAPLSSCPSQALQLAGCLSQLHSGLFLYQGLLQALEGISPELGPTLDTLQLDVADFATTIWQQMEELGMAPALQPTQGAMPAFASAFQRRAGGVLVASHLQSFLEVSYRVLRHLAQP
survival (intracranial CT2A glioma): did not to consistently impact survival | T-cell lymphopenia (blood T-cell counts) [2]: reversed | bone marrow T-cell counts [2]: decreased
